We go through one compound from patent US20250170258A1, “DOSAGE REGIMEN” (priority 2022, published 2025).

The subject of the experiment is pancreatic cancer PAXF 1657 patient-derived xenograft. Description: pancreatic cancer PAXF 1657 patient-derived xenograft model. The format is in vivo. To be noted: PAXF 1657 PDX, tested alone (single agent). Here is the method:
Gemcitabine is a nucleoside metabolic inhibitor. It inhibits DNA synthesis by inhibiting the ribonucleotide reductase, cell cycle-specific for the S-phase (also blocks cellular progression at G1/S-phase). It has been used as monotherapy or combination chemotherapy to treat various cancers. […] ADCT-601 and gemcitabine were tested either alone or in combination in the pancreatic cancer PAXF 1657 patient-derived xenograft model.
In general terms: A xenograft is tissue or cells of one species grown in another, often human tumour cells in immunodeficient mice.

On to `Nc1ccn([C@@H]2O[C@H](CO)[C@@H](O)C2(F)F)c(=O)n1` [gemcitabine], for which the anti-tumour activity entry was “limited anti-tumour activity”.
